What all share (format): cell-based
In one test the test system is Acinetobacter baumannii. The test can be described thus: Disk diffusion test on Acinetobacter baumannii. The text has this: (§1) Applicants undertook two rounds of studies. […] When agar plating was required, both rounds of Applicants' studies were undertaken using similar disk diffusion methods on bacteria grown on agar substrates in Petri dishes. These methods conform to those prescribed by the Clinical & Laboratory Standards Institute (https://clsi.org). […]

Another test has as its system Pseudomonas aeruginosa. In words: Disk diffusion test on Pseudomonas aeruginosa.
Text: as §1

The next test has as its system Klebsiella pneumoniae. The test can be described thus: Disk diffusion test on Klebsiella pneumoniae. Particulars: for antibacterial activity of the agent by itself: single agent disk, ceftazidime 30 μg, meropenem 10 μg, Compound C 15 μg. From the text: (§2) Applicants undertook two rounds of studies. The results of the first round are illustrated in FIGS. 1A-9B and discussed in the related text. The results of the second round of studies are illustrated in FIGS. 10-23 and discussed in the related text. When agar plating was required, both rounds of Applicants' studies were undertaken using similar disk diffusion methods on bacteria grown on agar substrates in Petri dishes. These methods conform to those prescribed by the Clinical & Laboratory Standards Institute (https://clsi.org).
(§3) Disk Diffusion tests with beta-lactam antibiotics with and without the beta-lactamase inhibitor of FIG. 1A. Closely spaced disks disclose possible synergistic or inhibitory effects between the antibiotics and the compound of FIG. 1A (labeled in FIGS. 4A-9B as Compound C). The distances between disks show the effectiveness of the possible synergy. […] Each disk contains either the compound of FIG. 1A or an antibiotic (one of FIGS. 3A-3D), or the compound of […] and an antibiotic (one of FIGS. 3A-3D). When a disk with the compound of FIG. 1A is in proximity to a disk with an antibiotic both agents diffuse into the bacterial growth medium, allowing us to observe the area where both agents are present at the same time. These disk diffusion tests were evaluated with the following:
(§4) As noted above, Applicants' studies were undertaken using similar disk diffusion methods on bacteria grown on agar substrates in Petri dishes. These methods conform to those prescribed by the Clinical & Laboratory Standards Institute (https://clsi.org).

In test [1] the test system is methicillin-resistant coagulase-negative Staphylococcus sps. (MRCoNS). In words: Disk diffusion test on MRCoNS. Particulars: for antibacterial activity of the agent by itself: single agent disk, penicillin G 10 μg, cefoxitin 30 μg, Compound C 15 μg.
Text: as §2, §3, §4

For test [2], the system named is MSSA (methicillin-sensitive Staphylococcus aureus). The test can be described thus: Disk diffusion test on Staphylococcus aureus (MSSA). To be noted: for action of the antibiotic by itself on the Staphylococcus aureus strain: used either separately or in combination.
Text: as §1

Another test concerns Escherichia coli. In words: Disk diffusion test on Escherichia coli.
Text: as §1

In the next test the test system is Citrobacter freundii. The test can be described thus: Disk diffusion test on Citrobacter freundii.
Text: as §1

[3] abbreviates: in combination with ceftazidime.
Setting [4] is: in combination with piperacillin.
Where [5] appears, read: in combination with ceftazidime (second round).
The mark [6] stands for this setting: in combination with meropenem (second round).
[7] abbreviates: in combination with ceftriaxone.

Molecules are shown by their SMILES. “Also recorded” adds a separate entry of the source.

Regarding `OB(O)c1cc(F)cc(F)c1F` [2,3,5-Trifluorophenylboronic acid], the “effectiveness of the combination with antibiotic” value (from here on “effectiveness of the combination”) in the test on Acinetobacter baumannii (in combination with cefepime), with Acinetobacter baumannii (setting [3]), with Acinetobacter baumannii (in combination with meropenem), in the test with Pseudomonas aeruginosa (in combination with aztreonam), with Pseudomonas aeruginosa (in combination with cefepime) and in the test on Pseudomonas aeruginosa (setting [3]) was “enhanced effectiveness” each time. In addition, the “effectiveness of the combination” value with Pseudomonas aeruginosa (in combination with meropenem) and in the test with Pseudomonas aeruginosa (setting [4]) was “enhanced effectiveness” each time.

Regarding `O=C(O)c1cc(B(O)O)ccc1F` [5-Borono-2-fluorobenzoic acid], the “effectiveness of the combination” value with Acinetobacter baumannii (in combination with cefepime), with Acinetobacter baumannii (in combination with meropenem), with Pseudomonas aeruginosa (in combination with aztreonam), in the test on Pseudomonas aeruginosa (in combination with cefepime) and with Pseudomonas aeruginosa (setting [4]) was “enhanced effectiveness” in each case.

Take `O=C(O)c1cc(B(O)O)cc([N+](=O)[O-])c1` [Benzoic acid, 3-borono-5-nitro]: the “effectiveness of the combination” value in the test on Acinetobacter baumannii (in combination with cefepime), in the test on Pseudomonas aeruginosa (in combination with aztreonam) and in the test on Pseudomonas aeruginosa (in combination with cefepime) was “enhanced effectiveness” throughout.

`O=C(O)c1cc(B(O)O)ccc1Cl` [5-Borono-2-chlorobenzoic acid]: the “effectiveness of the combination” value with Klebsiella pneumoniae (in combination with cefepime), in the test on Klebsiella pneumoniae (setting [5]), in the test with Acinetobacter baumannii (in combination with cefepime), with Acinetobacter baumannii (setting [3]) and in the test with Acinetobacter baumannii (in combination with meropenem) was “enhanced effectiveness” throughout.

As to `CO[C@@]1(NC(=O)Cc2cccs2)C(=O)N2C(C(=O)O)=C(COC(N)=O)CS[C@@H]21` [Cefoxitin, cefoxitin, reference compound], the “antibacterial activity of the agent by itself” value (shortened to “antibacterial activity”) in test [1] was “active on its own”.

Consider `C[C@@H](O)[C@H]1C(=O)N2C(C(=O)O)=C(S[C@@H]3CN[C@H](C(=O)N(C)C)C3)[C@H](C)[C@H]12` [Meropenem, meropenem, reference compound], for which the “antibacterial activity” value in the test with Klebsiella pneumoniae is “by itself IS active”.

Take `Nc1cc(B(O)O)cc(C(=O)O)c1` [3-Amino-5-carboxylphenylboronic acid]: the “effectiveness of the combination” value with Acinetobacter baumannii (in combination with cefepime) is listed as “enhanced effectiveness”.

For `CC1(C)S[C@@H]2[C@H](NC(=O)Cc3ccccc3)C(=O)N2[C@H]1C(=O)O` [Penicillin G, penicillin G, reference compound], the “antibacterial activity” value in test [1] is listed as “no activity by itself”; in test [1] (listed as penicillin G) it was “no antibacterial activity”. For the same compound, the “action of the antibiotic by itself on the Staphylococcus aureus strain” value in test [2] was “completely resistant”.

Take `CC1(C)OB(c2cccc(CC(=O)O)c2)OC1(C)C` [Phenylacetic acid-3-boronic acid pinacol ester]: the “effectiveness of the combination” value with Acinetobacter baumannii (in combination with cefepime), with Pseudomonas aeruginosa (in combination with aztreonam), in the test on Pseudomonas aeruginosa (in combination with cefepime), with Pseudomonas aeruginosa (in combination with meropenem) and in the test on Pseudomonas aeruginosa (setting [4]) was “enhanced effectiveness” throughout.

`O=C(O)c1ccc(F)c(B(O)O)c1` [5-Carboxy-2-fluorophenylboronic Acid]: the “effectiveness of the combination” value with Klebsiella pneumoniae (in combination with cefepime), in the test with Klebsiella pneumoniae (setting [5]), in the test on Klebsiella pneumoniae (setting [6]), with Acinetobacter baumannii (in combination with cefepime), in the test with Acinetobacter baumannii (setting [3]) and with Acinetobacter baumannii (in combination with meropenem) was “enhanced effectiveness” in each case. Also, the “effectiveness of the combination” value in the test with Pseudomonas aeruginosa (in combination with meropenem) was “enhanced effectiveness”; with Pseudomonas aeruginosa (setting [4]) it was “proved effective”.

On to `CC(C)(O/N=C(\C(=O)N[C@@H]1C(=O)N2C(C(=O)[O-])=C(C[n+]3ccccc3)CS[C@H]12)c1csc(N)n1)C(=O)O` [Ceftazidime, ceftazidime, reference compound], for which the “antibacterial activity” value with Klebsiella pneumoniae was “very little antibacterial activity; also recorded: by itself is inactive”.

`CC1(C)OB(c2ccc(C(=O)O)s2)OC1(C)C` [5-Carboxythiophene-2-boronic acid pinacol ester]: the “effectiveness of the combination” value (in the test with Klebsiella pneumoniae (setting [5]); with Klebsiella pneumoniae (setting [7]); in the test on Klebsiella pneumoniae (setting [6]); in test [1] (in combination with ampicillin); in test [1] (in combination with penicillin G (second round)); in test [2] (in combination with ampicillin)) was “enhanced effectiveness” throughout. The “effectiveness of the combination” value (in test [2] (in combination with penicillin G); with Escherichia coli (in combination with amoxycillin); in the test with Escherichia coli (setting [3]); with Escherichia coli (setting [7]); in the test with Escherichia coli (in combination with meropenem); in the test on Acinetobacter baumannii (in combination with cefepime)) was “enhanced effectiveness” throughout. Moreover, the “effectiveness of the combination” value with Acinetobacter baumannii (setting [3]), with Acinetobacter baumannii (in combination with meropenem), in the test with Citrobacter freundii (setting [3]), in the test with Citrobacter freundii (setting [7]), with Citrobacter freundii (in combination with meropenem) and in the test with Pseudomonas aeruginosa (in combination with aztreonam) was “enhanced effectiveness” throughout. The “effectiveness of the combination” value in the test with Pseudomonas aeruginosa (in combination with cefepime) is “partial effectiveness”; in the test with Pseudomonas aeruginosa (in combination with cefoperazone), “enhanced effectiveness”.

Turning to `O=C(O)c1ccc(Cl)c(B(O)O)c1` [5-Carboxy-2-chlorophenylboronic acid], the “effectiveness of the combination” value is “enhanced effectiveness” in the test on Klebsiella pneumoniae (in combination with cefepime); “enhanced effectiveness” in the test on Klebsiella pneumoniae (setting [5]); “enhanced effectiveness” with Acinetobacter baumannii (in combination with cefepime); “enhanced effectiveness” in the test on Acinetobacter baumannii (setting [3]); “partial enhanced effectiveness” in the test on Citrobacter freundii (in combination with meropenem); “enhanced effectiveness” in the test with Pseudomonas aeruginosa (in combination with meropenem). Also, the “effectiveness of the combination” value in the test with Pseudomonas aeruginosa (setting [4]) is “enhanced effectiveness”.

Turning to `O=C(O)c1cccc(B(O)O)c1F` [3-Carboxy-2-fluorophenylboronic acid], the “effectiveness of the combination” value with Klebsiella pneumoniae (in combination with cefepime), in the test on Klebsiella pneumoniae (setting [5]), in the test with Klebsiella pneumoniae (setting [6]), with Acinetobacter baumannii (in combination with cefepime), in the test on Acinetobacter baumannii (setting [3]) and with Acinetobacter baumannii (in combination with meropenem) was “enhanced effectiveness” throughout. For the same compound, the “effectiveness of the combination” value with Citrobacter freundii (in combination with meropenem), in the test with Pseudomonas aeruginosa (in combination with cefepime), with Pseudomonas aeruginosa (in combination with meropenem) and with Pseudomonas aeruginosa (setting [4]) was “partial effectiveness” throughout.

In the case of `CC1(C)S[C@@H]2[C@H](NC(=O)[C@H](N)c3ccc(O)cc3)C(=O)N2[C@H]1C(=O)O` [amoxicillin, reference compound], the “action of the antibiotic by itself on the Staphylococcus aureus strain” value in test [2] is given as “completely resistant”.

The values are drawn from US20250332181A1, “ANTIBIOTIC METHODS AND COMPOSITIONS” (AI BIO DISCOVERY LLC, priority 2024, published 2025).
